Experiments:
Test in all cases: MIC of antibiotics, antibiotic resistance profile of Salmonella enterica isolates
Format in all cases: cell-based
[1] = tested on: Salmonella enterica serotype Heidelberg isolates
Procedure: (§1) The Salmonella enterica isolates were also typed by their antibiotic resistance and Pulsed-Field Gel Electrophoresis (PFGE) patterns. The isolates'=0 resistance profile, a common and obviously important phenotypic assay, was determined for twenty antibiotics commonly used in veterinary medicine to control Salmonella infections. PFGE is the most common and widely accepted genotypic method currently in use. The PFGE patterns were analyzed by statistical pattern recognition to produce a dendrogram in which similar gel patterns are clustered so that they appear in or near the same branch of a similarity “tree.” Then the two types of mass spectra for the same twenty-nine samples, under several variations, were also evaluated by pattern recognition.

[2] = tested on: Salmonella enterica serotype Worthington isolates
Source text: (§2) To identify charge state of each ion cluster, we performed the following analyses on twenty-nine Salmonella enterica isolates (21 of serotype Heidelberg, 3 Anatum, 3 Worthington and 2 Muenster) from a turkey production environment. From the high mass end of the spectrum, we divided each ion peak by 2 or 3, look there for a corresponding peak. Ions at small integer dividends are then tabulated together with the largest, assumed to be a+1 charge state. Based on the assigned charge state, sum intensities (in the raw spectra) arising from nearby adducts or losses were calculated at their charge-state-predicted interval. The total around each same-charge-state cluster were added to the total for the same biomarker at its other identified charge states. Spectra were smoothed, the background was subtracted and then peaks were detected. Deconvolution was based on peaks at least 3% intensity of the base peak.
as §1

[3] = tested on: Salmonella enterica serotype Muenster isolates
Source text: as §2, §1

[4] = tested on: Salmonella enterica serotype Anatum isolates
Source text: as §2, §1

[5] = 6th of 29 isolates (ID cell blank)
[6] = 9th of 29 isolates (ID cell blank)
[7] = 29th of 29 isolates (ID printed 9)
[8] = 7th of 29 isolates (ID cell blank)
[9] = 18th of 29 isolates (ID printed 8)
[10] = 22nd of 29 isolates (ID printed 2)
[11] = 1st of 29 isolates (ID cell blank), turkey production environment
[12] = 2nd of 29 isolates (ID cell blank)
[13] = 3rd of 29 isolates (ID cell blank)

MIC [1, 5] | MIC [1, 6] | MIC ([1]; 10th of 29 isolates (ID 0)) | MIC ([1]; 11th of 29 isolates (ID 1)) | MIC ([1]; 13th of 29 isolates (ID 3)) | MIC ([1]; 14th of 29 isolates (ID 4)) | MIC ([1]; 15th of 29 isolates (ID 5)) | MIC ([1]; 20th of 29 isolates (ID 0)) | MIC ([2]; 26th of 29 isolates (ID 6)) | MIC [3, 7] | MIC [1, 8] | MIC ([1]; 16th of 29 isolates (ID 6)) | MIC [1, 9] | MIC ([1]; 21st of 29 isolates (ID 1)) | MIC [1, 10] | MIC ([1]; 24th of 29 isolates (ID 4)) | MIC [4, 11] | MIC [4, 12] | MIC [4, 13] | Compound | further results
>512 µg/mL | 512 µg/mL | 512 µg/mL | 512 µg/mL | 512 µg/mL | 512 µg/mL | 512 µg/mL | 512 µg/mL | 64 µg/mL | 32 µg/mL | – | – | – | – | – | – | – | – | – | CC[C@H]1OC(=O)[C@H](C)[C@@H](O[C@H]2C[C@@](C)(OC)[C@@H](O)[C@H](C)O2)[C@H](C)[C@@H](O[C@@H]2O[C@H](C)C[C@H](N(C)C)[C@H]2O)[C@](C)(O)C[C@@H](C)C(=O)[C@H](C)[C@@H](O)[C@]1(C)O [Er] | MIC ([1]; 4th of 29 isolates (ID cell blank)): 512 µg/mL; MIC ([1]; 8th of 29 isolates (ID cell blank)): 512 µg/mL; MIC ([3]; 28th of 29 isolates (ID printed 8)): 512 µg/mL
>512 µg/mL | >512 µg/mL | >512 µg/mL | >512 µg/mL | >512 µg/mL | >512 µg/mL | >512 µg/mL | >512 µg/mL | – | – | >512 µg/mL | >512 µg/mL | >512 µg/mL | >512 µg/mL | >512 µg/mL | >512 µg/mL | – | – | – | CN[C@@H]1[C@H](O)[C@H](NC)[C@H]2O[C@@]3(O)C(=O)C[C@@H](C)O[C@H]3O[C@@H]2[C@H]1O [Spt] | –
>256 µg/mL | >256 µg/mL | >256 µg/mL | >256 µg/mL | >256 µg/mL | >256 µg/mL | >256 µg/mL | >256 µg/mL | – | >256 µg/mL | >256 µg/mL | >256 µg/mL | >256 µg/mL | >256 µg/mL | >256 µg/mL | >256 µg/mL | 256 µg/mL | 256 µg/mL | 256 µg/mL | CN[C@@H]1[C@H](O[C@H]2[C@H](O[C@H]3[C@H](O)[C@@H](O)[C@H](N=C(N)N)[C@@H](O)[C@@H]3N=C(N)N)O[C@@H](C)[C@]2(O)C=O)O[C@@H](CO)[C@H](O)[C@H]1O [St] | –
– | – | 256 µg/mL | – | – | – | – | – | 32 µg/mL | – | – | – | – | – | – | 256 µg/mL | 512 µg/mL | 256 µg/mL | 256 µg/mL | CN(C)C1C(O)=C(C(N)=O)C(=O)C2(O)C(O)=C3C(=O)c4c(O)cccc4C(C)(O)C3CC12 (stereo not drawn) [Te] | MIC ([1]; 5th of 29 isolates (ID cell blank)): 128 µg/mL; MIC ([2]; 17th of 29 isolates (ID printed 7)): 32 µg/mL; MIC ([2]; 27th of 29 isolates (ID printed 7)): 32 µg/mL
